Data reported in ChEMBL document CHEMBL1201862, “PubChem BioAssay data set” (2004).
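48-hour exposure; five concentrations; linearly interpolated endpoints. GI50 is the concentration that inhibits growth by half.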 Calls of active or inactive are those of the source. Rule as the data show it: active = GI50 up to about 1.1 µM and inactive = higher.

What was measured:
Test in all cases: NCI-60 cell line screen, 48 h
786-0 = tested on: 786-0
HOP-62 = tested on: HOP-62
PC-3 = tested on: PC-3
M14 = tested on: M14
NCI-H226 = tested on: NCI-H226
NCI-H23 = tested on: NCI-H23
COLO 205 = tested on: COLO 205
SK-MEL-28 = tested on: SK-MEL-28
MDA-MB-435 = tested on: MDA-MB-435
OVCAR-4 = tested on: OVCAR-4
RXF 393 = tested on: RXF 393
UO-31 = tested on: UO-31
HT-29 = tested on: HT-29
SR = tested on: SR
HCT-15 = tested on: HCT-15
K562 = tested on: K562
SN12C = tested on: SN12C
Malme-3M = tested on: Malme-3M
RPMI-8226 = tested on: RPMI-8226
SNB-19 = tested on: SNB-19

Row | SMILES | GI50 (786-0) | GI50 (HOP-62) | GI50 (PC-3) | GI50 (M14) | GI50 (NCI-H226) | GI50 (NCI-H23) | GI50 (COLO 205) | GI50 (SK-MEL-28) | GI50 (MDA-MB-435) | GI50 (OVCAR-4) | GI50 (RXF 393) | GI50 (UO-31) | GI50 (HT-29) | GI50 (SR) | GI50 (HCT-15) | GI50 (K562) | GI50 (SN12C) | GI50 (Malme-3M) | GI50 (RPMI-8226) | GI50 (SNB-19)
1 | CCN(CCO)CC1COc2ccccc2O1 (stereo not given) | > 100 µM (inactive) | > 100 µM (inactive) | > 100 µM (inactive) | > 100 µM (inactive) | > 100 µM (inactive) | > 100 µM (inactive) | > 100 µM (inactive) | > 100 µM (inactive) | > 100 µM (inactive) | > 100 µM (inactive) | > 100 µM (inactive) | > 100 µM (inactive) | > 100 µM (inactive) | > 100 µM (inactive) | > 100 µM | > 100 µM (inactive) | > 100 µM (inactive) | > 100 µM (inactive) | – | –
2 | Cc1c(C)c2c(c(N)c1C#N)C(=O)N(NC(=S)Nc1ccccc1)C2=O | 44.1 µM (inactive) | – | > 100 µM (inactive) | > 100 µM (inactive) | 42.8 µM (inactive) | > 100 µM (inactive) | 79.4 µM (inactive) | > 100 µM (inactive) | > 100 µM (inactive) | > 100 µM (inactive) | 46 µM (inactive) | 44.4 µM (inactive) | 60.1 µM (inactive) | 22.4 µM (inactive) | 67.8 µM | > 100 µM (inactive) | 69.7 µM (inactive) | 72.9 µM (inactive) | 43.3 µM (inactive) | 56.6 µM (inactive)
3 | CC(C)(C)c1ccc(O)c(CN(Cc2cc(C(C)(C)C)ccc2O)c2ccccc2)c1 | 16.6 µM (inactive) | 20.8 µM (inactive) | 17.9 µM (inactive) | 14.4 µM (inactive) | – | 21.1 µM (inactive) | 17.1 µM (inactive) | 17.5 µM (inactive) | 16.2 µM (inactive) | 19.2 µM (inactive) | 13.6 µM (inactive) | 14.4 µM (inactive) | 18.3 µM (inactive) | 16 µM (inactive) | 18.3 µM | 11.6 µM (inactive) | 17.7 µM (inactive) | 15.8 µM (inactive) | 16.7 µM (inactive) | 16.4 µM (inactive)
4 | CCCC(=O)N1CCN(c2ccc3c(c2)OC(C)O3)CC1 (stereo not given) | > 100 µM (inactive) | > 100 µM (inactive) | > 100 µM (inactive) | > 100 µM (inactive) | > 100 µM (inactive) | > 100 µM (inactive) | > 100 µM (inactive) | > 100 µM (inactive) | > 100 µM (inactive) | > 100 µM (inactive) | > 100 µM (inactive) | > 100 µM (inactive) | > 100 µM (inactive) | > 100 µM (inactive) | > 100 µM | > 100 µM (inactive) | > 100 µM (inactive) | > 100 µM (inactive) | – | > 100 µM (inactive)
5 | COc1ccc(-c2c3c(n(C4OC(CO)C(O)C(O)C4O)c(=S)c2C#N)CCCC3)cc1 (stereo not given) | > 100 µM (inactive) | > 100 µM (inactive) | > 100 µM (inactive) | > 100 µM (inactive) | > 100 µM (inactive) | > 100 µM (inactive) | > 100 µM (inactive) | – | > 100 µM (inactive) | > 100 µM (inactive) | > 100 µM (inactive) | – | > 100 µM (inactive) | > 100 µM (inactive) | > 100 µM | – | > 100 µM (inactive) | > 100 µM (inactive) | – | –
6 | CC[C@H](CO)Nc1nc(NCc2ccccc2)c2ncn(C(C)C)c2n1 [SELICICLIB] | 23.3 µM (inactive) | 24.6 µM (inactive) | 19.9 µM (inactive) | 27.9 µM (inactive) | 19.2 µM (inactive) | 13.2 µM (inactive) | 11.6 µM (inactive) | – | 13.3 µM (inactive) | 35.2 µM (inactive) | 4.9 µM (inactive) | 13.6 µM (inactive) | 20 µM (inactive) | 5.4 µM (inactive) | 19.3 µM | 53 µM (inactive) | – | 19.3 µM (inactive) | 24.2 µM (inactive) | –
7 | Clc1ccc(C(c2ccc(Cl)cc2)N2CCNCC2)cc1 | 1.77 µM (inactive) | 1.87 µM (inactive) | 2.45 µM (inactive) | 1.73 µM (inactive) | – | 5.24 µM (inactive) | 1.96 µM (inactive) | 1.81 µM (inactive) | 1.93 µM (inactive) | 2.48 µM (inactive) | 4.22 µM (inactive) | 2.02 µM (inactive) | 2.03 µM (inactive) | 1.75 µM (inactive) | 2.58 µM | 1.58 µM (inactive) | 2.89 µM (inactive) | 1.58 µM (inactive) | 1.83 µM (inactive) | 5.13 µM (inactive)
8 | O=C1CC2OCC=C3CN4CCC5(C(=O)O)C(N1)C2C3CC45 (stereo not given) | > 100 µM (inactive) | > 100 µM (inactive) | > 100 µM (inactive) | > 100 µM (inactive) | > 100 µM (inactive) | > 100 µM (inactive) | > 100 µM (inactive) | > 100 µM (inactive) | > 100 µM (inactive) | > 100 µM (inactive) | > 100 µM (inactive) | > 100 µM (inactive) | > 100 µM (inactive) | > 100 µM (inactive) | > 100 µM | > 100 µM (inactive) | > 100 µM (inactive) | > 100 µM (inactive) | – | > 100 µM (inactive)
9 | O=[N+]([O-])c1cccc(-c2nc(-c3ccccc3)c(-c3ccccc3)[nH]2)c1 | > 100 µM (inactive) | > 100 µM (inactive) | > 100 µM (inactive) | > 100 µM (inactive) | > 100 µM (inactive) | > 100 µM (inactive) | > 100 µM (inactive) | > 100 µM (inactive) | > 100 µM (inactive) | – | > 100 µM (inactive) | > 100 µM (inactive) | – | > 100 µM (inactive) | – | > 100 µM (inactive) | > 100 µM (inactive) | > 100 µM (inactive) | > 100 µM (inactive) | > 100 µM (inactive)
10 | O=C(O)c1cscc1Cc1cccs1 | > 100 µM (inactive) | > 100 µM (inactive) | > 100 µM (inactive) | > 100 µM (inactive) | 23.5 µM (inactive) | > 100 µM (inactive) | > 100 µM (inactive) | > 100 µM (inactive) | > 100 µM (inactive) | > 100 µM (inactive) | > 100 µM (inactive) | – | > 100 µM (inactive) | > 100 µM (inactive) | > 100 µM | > 100 µM (inactive) | > 100 µM (inactive) | > 100 µM (inactive) | > 100 µM (inactive) | > 100 µM (inactive)
11 | O=C1/C(=C/c2cccs2)NC(=S)N1CN1CCCC(CO)C1 (stereo not given) | > 100 µM (inactive) | > 100 µM (inactive) | > 100 µM (inactive) | > 100 µM (inactive) | > 100 µM (inactive) | > 100 µM (inactive) | > 100 µM (inactive) | > 100 µM (inactive) | > 100 µM (inactive) | > 100 µM (inactive) | – | > 100 µM (inactive) | > 100 µM (inactive) | > 100 µM (inactive) | > 100 µM | > 100 µM (inactive) | > 100 µM (inactive) | > 100 µM (inactive) | 99.1 µM (inactive) | > 100 µM (inactive)
12 | COc1ccc(Nc2nc3ccc(C(F)(F)F)cc3nc2C(=O)O)cc1OC | 35 µM (inactive) | 25.2 µM (inactive) | 26.5 µM (inactive) | – | 36.7 µM (inactive) | 24.4 µM (inactive) | 43 µM (inactive) | 41.6 µM (inactive) | 32.7 µM (inactive) | 40.6 µM (inactive) | 29.6 µM (inactive) | 19.2 µM (inactive) | 38.4 µM (inactive) | 18.9 µM (inactive) | 25.9 µM | 29 µM (inactive) | 34.9 µM (inactive) | 31.7 µM (inactive) | – | 23.6 µM (inactive)
13 | CCOC(=O)C1(Cc2ccc3c(c2)CCC3)Cc2cc3c(cc2C1)CCC3 | 29.6 µM (inactive) | 32.9 µM (inactive) | 21.9 µM (inactive) | 21.5 µM (inactive) | 31.6 µM (inactive) | 35.7 µM (inactive) | 33.9 µM (inactive) | 39.4 µM (inactive) | 35.7 µM (inactive) | 28 µM (inactive) | – | 49 µM (inactive) | 6.46 µM (inactive) | 23.9 µM (inactive) | 32 µM | 15.2 µM (inactive) | 27.8 µM (inactive) | 27.2 µM (inactive) | 14.6 µM (inactive) | 36.7 µM (inactive)
14 | CC1CN=C(Nc2ccccc2)S1 (stereo not given) | > 100 µM (inactive) | > 100 µM (inactive) | > 100 µM (inactive) | > 100 µM (inactive) | > 100 µM (inactive) | > 100 µM (inactive) | > 100 µM (inactive) | > 100 µM (inactive) | > 100 µM (inactive) | – | > 100 µM (inactive) | 56.8 µM (inactive) | > 100 µM (inactive) | > 100 µM (inactive) | > 100 µM | > 100 µM (inactive) | > 100 µM (inactive) | > 100 µM (inactive) | > 100 µM (inactive) | > 100 µM (inactive)
15 | NC12c3c4cccc3Oc3cccc(c31)Oc1cccc(c12)O4 | > 50 µM (inactive) | > 50 µM (inactive) | > 50 µM (inactive) | > 50 µM (inactive) | > 50 µM (inactive) | > 50 µM (inactive) | > 50 µM (inactive) | > 50 µM (inactive) | > 50 µM (inactive) | > 50 µM (inactive) | > 50 µM (inactive) | > 50 µM (inactive) | > 50 µM (inactive) | > 50 µM (inactive) | > 50 µM | 31 µM (inactive) | > 50 µM (inactive) | – | > 50 µM (inactive) | > 50 µM (inactive)
